Biological target: T1, WT LRRK2 (Homo sapiens, UniProt Q5S007)
T1 construct: endogenous in cells; host or cells: HEK293 (endogenous LRRK2 gene knock-in tagged with HiBit; stably expressing CMV-driven firefly luciferase)
Test: LRRK2 HiBit degradation assay (Nano-Glo Dual Luciferase) in HEK293 cells with HiBit-tagged endogenous LRRK2
Format: cell-based
Details: for Dmax / WT LRRK2 **Dmax (%): maximal degradation
From the text: Biological Assays Exemplary Assay for Testing LRRK2 Degradation Driven by Exemplary Hetero-Bifunctional Compounds Designed to Target LRRK2
The assay measures the degradation of LRRK2 in cells where the C-terminus (3′) of the endogenous gene has been tagged with a HiBit sequence in HEK293 cells. The cells also express firefly lucisferase, expressed from a Cytomegalovirus promoter and introduced into the HiBit tagged cells and stably expressed. The Nano-Glo® Dual Luciferase Reporter Assay System (Promega™, Madison, WI) was utilized.
Day 1—Preparation of Compound and Assay Plates. Two sets of plates were prepared: a triplicate set for the HiBit assay in white 384-well plates and a triplicate set of plate in black 384-well plates for the Alamar Blue cell viability assay. Briefly, the growth media (DMEM+Glutamax-10% fetal bovine serum-1% Penicillin-Streptomicin) from two T128 flasks was aspirated from the flasks. Cells were washed with Dulbecco's Phosphate Buffered Saline (dPBS) and aspirated. Trypsin (3 mL per flask) was added and the flasks were incubated for 2-3 minutes.
Ten mL of OptiMEM—10% fetal bovine-1% penicillin-streptomycin (hereinafter, “OptiMEM media”) was added to the flask and the cells and transferred to a 50 ml conical tube. A cell count (25 ul of cell into Effendorf vial+25 ul of Trypan Blue Stain) was performed and the cell density adjusted to 15,000 cell/45 μl/well (3.33×10^5/mL) in OptiMEM media.
Forty-five microliters of the cell suspension (15,000 cells) was aliquoted to each well of the white 384-well plate. The plates incubated at room temperature for 10 minutes before being placed in the 37° C.+5% CO2 incubator overnight
Day 2—Compound Treatment. Exemplary compounds were prepared at a 1 mM starting concentration and 1:3 serial dilution for 11 points CRC prepared and stored in the freezer. The Master Compound Plate was thawed overnight at room temperature. DMSO (20 μL) was added into column 24 of the Master Compound Plate for negative control and 20 μL of 300 μM of Compound 4 in column 23 as positive control.
Intermediate Compound Plate with 4% DMSO in OptiMEM Media. DMSO was added to warm OptiMEM media to achieve a 4% DMSO solution (approximately 50 mL/plate). One-hundred microliters of the OptiMEM-4% DMSO was aliquoted to each well of 384-Well Deep Well Microplates.
The Master Compound Plate and the Intermediate Compound Plate were spun down.
One microliter of compound from the Master Compound Plate was transferred into the Intermediate plate (a 1:100 dilution). The diluted mixture was mixed and 5 μL transferred into the assay plate (a 1:10 dilution) for the final starting concentration of 1 μM. The Treated Assay plates were incubated for 24 hours at 37° C.+5% CO2. The Master Compound Plate was sealed and store at room temperature for a second run that was performed within a week.
One set of white assay plates was warmed to room temperature (45 minute).
The One Glo luciferase mixture was prepared. The media from white 384-well assay plates was aspirated. Twenty-five μL of the One Glo luciferase mixture was added to each well of the assay plates. The plates were incubated on the bench (room temperature) for 45 minutes, including 10 minutes of shaking at 700 rpm. The luminescence of each plate was read on a plate reader.
1:100 DLR substrate and 1:100 LgBiT Protein dilution were added to the Promega Stop and Glo buffer and mixed just before addition to assay plates. Twenty-five microliters of Stop and Glo mixture was added to each well. Assay plates incubated for at least 45 minutes, including 10 minutes of shaking at 700 rpm. The luminescence of each plate was read on a plate reader.
Analysis of LRRK2 HiBit Screening assays. As mentioned above, plates were run in triplicate and the assay repeated twice (total of 6 replicate for exemplary compounds). For each treatment, measurements were taken for firefly luciferase for cell number, cell viability (Alamar Blue), and Nanoluc for the LRRK2-HiBit quantification. […]

[1] = HEK293, Table 2, HiBit-tagged LRRK2 in HEK293 cells, 24 hours treatment
[2] = HEK293, Table 3, comparison with direct comparators
[3] = Table 2, HiBit-tagged LRRK2 in HEK293 cells, 24 hours treatment, starting concentration 1 μM
[4] = Table 3, comparison with direct comparators, HiBit-tagged LRRK2 in HEK293 cells, 24 hours treatment
[5] = Table 2, HiBit-tagged LRRK2 in HEK293 cells, 24 hours treatment

T1 sequence (Q5S007 whole entry): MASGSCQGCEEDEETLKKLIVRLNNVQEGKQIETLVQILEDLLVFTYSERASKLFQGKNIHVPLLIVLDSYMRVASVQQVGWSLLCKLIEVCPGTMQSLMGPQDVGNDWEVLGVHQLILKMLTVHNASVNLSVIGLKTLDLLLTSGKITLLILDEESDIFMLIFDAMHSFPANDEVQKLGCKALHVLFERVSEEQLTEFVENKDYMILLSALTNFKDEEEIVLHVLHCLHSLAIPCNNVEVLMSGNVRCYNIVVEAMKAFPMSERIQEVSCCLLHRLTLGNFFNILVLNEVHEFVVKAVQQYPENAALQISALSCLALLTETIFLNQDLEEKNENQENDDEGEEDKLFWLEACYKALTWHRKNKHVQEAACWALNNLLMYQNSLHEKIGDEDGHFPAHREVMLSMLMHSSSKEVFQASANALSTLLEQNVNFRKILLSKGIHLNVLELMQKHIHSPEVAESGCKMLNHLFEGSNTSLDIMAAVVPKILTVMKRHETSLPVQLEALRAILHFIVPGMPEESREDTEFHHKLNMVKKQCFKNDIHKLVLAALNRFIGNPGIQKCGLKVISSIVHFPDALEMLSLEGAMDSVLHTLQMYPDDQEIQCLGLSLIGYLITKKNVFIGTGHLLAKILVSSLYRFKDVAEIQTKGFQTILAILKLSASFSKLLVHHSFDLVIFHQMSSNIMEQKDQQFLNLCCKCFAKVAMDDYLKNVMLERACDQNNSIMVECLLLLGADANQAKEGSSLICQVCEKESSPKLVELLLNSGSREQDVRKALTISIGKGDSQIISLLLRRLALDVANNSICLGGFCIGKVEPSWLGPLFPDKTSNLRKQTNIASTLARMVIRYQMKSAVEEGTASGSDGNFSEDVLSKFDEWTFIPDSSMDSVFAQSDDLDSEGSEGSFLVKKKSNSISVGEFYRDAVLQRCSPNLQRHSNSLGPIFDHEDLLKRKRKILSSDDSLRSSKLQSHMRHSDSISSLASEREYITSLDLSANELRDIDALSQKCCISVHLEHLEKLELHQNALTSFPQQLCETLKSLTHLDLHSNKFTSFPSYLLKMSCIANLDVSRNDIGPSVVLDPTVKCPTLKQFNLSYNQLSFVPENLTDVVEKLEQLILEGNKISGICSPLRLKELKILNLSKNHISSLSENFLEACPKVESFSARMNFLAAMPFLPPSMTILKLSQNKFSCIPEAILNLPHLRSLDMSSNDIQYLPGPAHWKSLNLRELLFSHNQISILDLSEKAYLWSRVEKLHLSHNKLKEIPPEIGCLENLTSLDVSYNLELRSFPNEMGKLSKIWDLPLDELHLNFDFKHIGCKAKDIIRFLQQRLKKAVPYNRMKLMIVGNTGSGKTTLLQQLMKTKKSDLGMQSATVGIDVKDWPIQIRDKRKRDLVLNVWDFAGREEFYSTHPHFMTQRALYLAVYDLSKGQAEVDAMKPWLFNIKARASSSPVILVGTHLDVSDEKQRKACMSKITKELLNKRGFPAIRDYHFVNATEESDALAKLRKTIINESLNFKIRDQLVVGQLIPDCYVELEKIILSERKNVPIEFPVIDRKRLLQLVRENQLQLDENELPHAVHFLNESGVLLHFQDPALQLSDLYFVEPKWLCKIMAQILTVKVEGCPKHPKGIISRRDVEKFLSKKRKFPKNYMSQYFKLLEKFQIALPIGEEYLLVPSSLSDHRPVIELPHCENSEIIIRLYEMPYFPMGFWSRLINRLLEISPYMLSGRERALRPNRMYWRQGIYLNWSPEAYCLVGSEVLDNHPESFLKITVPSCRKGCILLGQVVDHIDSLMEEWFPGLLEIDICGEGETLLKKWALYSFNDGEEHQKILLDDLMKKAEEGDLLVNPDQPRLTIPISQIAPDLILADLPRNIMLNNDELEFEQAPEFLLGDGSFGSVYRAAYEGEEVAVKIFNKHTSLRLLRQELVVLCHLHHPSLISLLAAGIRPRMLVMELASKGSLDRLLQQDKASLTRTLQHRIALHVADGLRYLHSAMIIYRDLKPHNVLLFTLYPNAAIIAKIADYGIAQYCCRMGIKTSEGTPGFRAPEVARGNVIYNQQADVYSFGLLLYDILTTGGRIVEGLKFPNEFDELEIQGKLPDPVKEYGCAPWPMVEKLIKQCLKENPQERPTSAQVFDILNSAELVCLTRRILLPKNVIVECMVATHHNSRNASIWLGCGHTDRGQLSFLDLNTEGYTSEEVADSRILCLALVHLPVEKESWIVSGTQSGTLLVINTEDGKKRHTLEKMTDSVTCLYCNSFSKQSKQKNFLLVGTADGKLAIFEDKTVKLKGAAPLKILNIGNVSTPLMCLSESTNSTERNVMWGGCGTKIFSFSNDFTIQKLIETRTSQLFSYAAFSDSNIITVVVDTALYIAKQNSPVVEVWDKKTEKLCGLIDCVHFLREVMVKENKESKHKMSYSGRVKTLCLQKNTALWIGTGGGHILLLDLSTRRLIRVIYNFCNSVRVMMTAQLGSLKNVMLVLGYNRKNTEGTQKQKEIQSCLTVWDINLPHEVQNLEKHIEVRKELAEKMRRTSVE

Compound	Dmax [1]	Dmax [2]	DC50 [3]	DC50 [4]	WT LRRK2 **Dmax (%) [5]
CC1(Oc2ccc3[nH]nc(-c4cc(N5CCC(CN6CCN(CC7CCN(c8cc9ncn(C%10CCC(=O)NC%10=O)c9cc8F)CC7)CC6(C)C)CC5)ncn4)c3c2)CC1 (stereo not shown) [Compound 40, 3-{5-[4-({3,3-dimethyl-4-[(1-{6-[5-(1-methylcyclopropoxy)-1H-indazol-3-yl]pyrimidin-4-yl}piperidin-4-yl)methyl]piperazin-1-yl}methyl)piperidin-1-yl]-6-fluoro-1H-1,3-benzodiazol-1-yl}piperidine-2,6-dione]	59%	59%	4.2 nM	4.2 nM	
COc1c(N2CCC(CN3CCN(CC4CCN(c5cc(-c6n[nH]c7ccc(OC8(C)CC8)cc67)ncn5)CC4)CC3)CC2)ccc2c1CN(C1CCC(=O)NC1=O)C2=O (stereo not shown) [Comparative Example 4, reference compound]		80%		0.79 nM	
CC(C)n1c(=O)n(C2CCC(=O)NC2=O)c2ccc(N3CCC(O[C@H]4CC[C@@H](CN5CCN(c6cc(-c7n[nH]c8cnc(OC9(C)CC9)cc78)ncn6)CC5)CC4)CC3)cc21 (single isomer, unassigned) [Compound 53, rel-3-[2-oxo-3-(propan-2-yl)-5-(4-{[(1r,4r)-4-[(4-{6-[5-(1-methylcyclopropoxy)-1H-pyrazolo[3,4-c]pyridin-3-yl]pyrimidin-4-yl}piperazin-1-yl)methyl]cyclohexyl]oxy}piperidin-1-yl)-2,3-dihydro-1H-1,3-benzodiazol-1-yl]piperidine-2,6-dione]	54%		0.59 nM		
Cn1c(=O)n(C2CCC(=O)NC2=O)c2ccc(N3CCC(O[C@H]4CC[C@H](CN5CCN(c6cc(-c7n[nH]c8ccc(C9(C#N)CC%10(CC%10)C9)cc78)ncn6)CC5)CC4)CC3)cc21 (single isomer, unassigned) [Compound 64, rel-5-{3-[6-(4-{[(1r,4r)-4-({1-[1-(2,6-dioxopiperidin-3-yl)-3-methyl-2-oxo-2,3-dihydro-1H-1,3-benzodiazol-5-yl]piperidin-4-yl}oxy)cyclohexyl]methyl}piperazin-1-yl)pyrimidin-4-yl]-1H-indazol-5-yl}spiro[2.3]hexane-5-carbonitrile]	63%		0.16 nM		
CC1(Oc2ccc3[nH]nc(-c4cc(N5CCC(CN6CCN(CC7CCN(c8ccc9c(c8)ncn9C8CCC(=O)NC8=O)CC7)CC6(C)C)CC5)ncn4)c3c2)CC1 (stereo not shown) [Compound 13, 3-{5-[4-({3,3-dimethyl-4-[(1-{6-[5-(1-methylcyclopropoxy)-1H-indazol-3-yl]pyrimidin-4-yl}piperidin-4-yl)methyl]piperazin-1-yl}methyl)piperidin-1-yl]-1H-1,3-benzodiazol-1-yl}piperidine-2,6-dione]	64%	64%	1 nM	1 nM	
Cn1c(=O)n(C2CCC(=O)NC2=O)c2ccc(N3CCC(OC4CCC(OC5CCN(c6cc(-c7n[nH]c8cnc(OC9(C)CC9)cc78)ncn6)CC5)CC4)CC3)cc21 (stereo not drawn) [Compound 25, rel-3-[3-methyl-2-oxo-5-(4-{[(1r,4r)-4-[(1-{6-[5-(1-methylcyclopropoxy)-1H-pyrazolo[3,4-c]pyridin-3-yl]pyrimidin-4-yl}piperidin-4-yl)oxy]cyclohexyl]oxy}piperidin-1-yl)-2,3-dihydro-1H-1,3-benzodiazol-1-yl]piperidine-2,6-dione]			0.32 nM		48%
Cn1c(=O)n(C2CCC(=O)NC2=O)c2cccc(N3CCC(O[C@H]4CC[C@H](CN5CCN(c6cc(-c7n[nH]c8cnc(OC9(C)CC9)cc78)ncn6)CC5)CC4)CC3)c21 (single isomer, unassigned) [Compound 46, rel-3-[3-methyl-2-oxo-4-(4-{[(1r,4r)-4-[(4-{6-[5-(1-methylcyclopropoxy)-1H-pyrazolo[3,4-c]pyridin-3-yl]pyrimidin-4-yl}piperazin-1-yl)methyl]cyclohexyl]oxy}piperidin-1-yl)-2,3-dihydro-1H-1,3-benzodiazol-1-yl]piperidine-2,6-dione]	90%		2.1 nM		
Cn1c(=O)n(C2CCC(=O)NC2=O)c2ccc(N3CCC(O[C@H]4CC[C@H](CN5CCN(c6cc(-c7n[nH]c8ccc(C9(C#N)CC9)cc78)ncn6)CC5)CC4)CC3)cc21 (single isomer, unassigned) [Compound 63, rel-1-{3-[6-(4-{[(1r,4r)-4-({1-[1-(2,6-dioxopiperidin-3-yl)-3-methyl-2-oxo-2,3-dihydro-1H-1,3-benzodiazol-5-yl]piperidin-4-yl}oxy)cyclohexyl]methyl}piperazin-1-yl)pyrimidin-4-yl]-1H-indazol-5-yl}cyclopropane-1-carbonitrile]	56%		0.13 nM		
Cn1c(=O)n(C2CCC(=O)NC2=O)c2cccc(N3CCC(CN4CCN(CC5CCN(c6cc(-c7n[nH]c8ccc(OC9(C)CC9)cc78)ncn6)CC5)CC4)CC3)c21 (stereo not shown) [Compound 15, 3-{3-methyl-4-[4-({4-[(1-{6-[5-(1-methylcyclopropoxy)-1H-indazol-3-yl]pyrimidin-4-yl}piperidin-4-yl)methyl]piperazin-1-yl}methyl)piperidin-1-yl]-2-oxo-2,3-dihydro-1H-1,3-benzodiazol-1-yl}piperidine-2,6-dione]	59%	59%	1.5 nM	1.5 nM	
Cn1c(=O)n(C2CCC(=O)NC2=O)c2cc(N3CCC(OC4CCC(CN5CCN(c6cc(-c7n[nH]c8ccc(OC9(C)CC9)cc78)ncn6)CC5)CC4)CC3)ccc21 (stereo not shown) [Compound 5, 3-[3-methyl-2-oxo-6-(4-{[(1r,4r)-4-[(4-{6-[5-(1-methylcyclopropoxy)-1H-indazol-3-yl]pyrimidin-4-yl}piperazin-1-yl)methyl]cyclohexyl]oxy}piperidin-1-yl)-2,3-dihydro-1H-1,3-benzodiazol-1-yl]piperidine-2,6-dione]			≥ 1000 nM		
COc1cc2c(-c3cc(N4CCN(C[C@H]5CC[C@H](OC6CCN(c7ccc8c(c7)n(C)c(=O)n8C7CCC(=O)NC7=O)CC6)CC5)CC4)ncn3)n[nH]c2cn1 (single isomer, unassigned) [Compound 21, rel-3-[3-methyl-2-oxo-5-(4-{[(1r,4r)-4-{[4-(6-{5-methoxy-1H-pyrazolo[3,4-c]pyridin-3-yl}pyrimidin-4-yl)piperazin-1-yl]methyl}cyclohexyl]oxy}piperidin-1-yl)-2,3-dihydro-1H-1,3-benzodiazol-1-yl]piperidine-2,6-dione]			≥ 1000 nM		
CC1(Oc2ccc3[nH]nc(-c4cc(N5CCN(CC6CCC(OC7CCN(c8ccc9ncn(C%10CCC(=O)NC%10=O)c9c8)CC7)CC6)CC5)ncn4)c3c2)CC1 (stereo not shown) [Compound 4, 3-[6-(4-{[(1r,4r)-4-[(4-{6-[5-(1-methylcyclopropoxy)-1H-indazol-3-yl]pyrimidin-4-yl}piperazin-1-yl)methyl]cyclohexyl]oxy}piperidin-1-yl)-1H-1,3-benzodiazol-1-yl]piperidine-2,6-dione]			7.5 nM		62%

From patent US12589156B2, “Benzimidazole and benzimidazolone based protac compounds for the targeted degradation of leucine rich repeat kinase 2 (LRRK2)” (Arvinas Operations, Inc., priority 2023, dated 2026)
